This note sets out measurements from PMC3885398, “Evaluation of the Antitumor Effects of BPR1J-340, a Potent and Selective FLT3 Inhibitor, Alone or in Combination with an HDAC Inhibitor, Vorinostat, in AML Cancer” (PLoS ONE, 2014).

In test [1] the target is T1, PIM1 (Homo sapiens, UniProt P11309).
T1 construct: purchased Invitrogen SelectScreen
As to the kind of experiment: Invitrogen SelectScreen kinase profiling. The format is biochemical. Conditions: 100 nM. The method, then:
(§1) The FLT3 and VEGFR1/2 Kinase-Glo kinase assays were performed as reported by our earlier study. The VEGFR3 activity analysis was conducted using the same protocol described in the VEGFR1/2 assay. The kinase inhibition profiling and inhibitory activity of FLT3-D835Y, CSF1R, and TRKA were determined by Invitrogen SelectScreen® kinase profiling service (Carlsbad, California, USA).
(§2) BPR1J-340, a urea-substituted 3-phenyl-1H-5-pyrazolylamine-based compound, was designed through chemical modification of sulfonamide series of derivatives (BPR1J-097 series) by a structure-activity relationship (SAR) study (Fig. 1), [32]. For kinase inhibition specificity screening, BPR1J-340 was tested against 59 protein kinases covering the major oncogenic kinases of human protein kinome. […] In addition, BPR1J-340 inhibited TRKA, which is associated with the growth and metastasis of breast cancers, with an IC50 value of 8 nM. Given the high similarity of the ATP binding pockets of FLT3 and the Aurora kinases, the inhibitory activity toward Aurora A and Aurora B were measured. […] Taken together, BPRJ-340 is a selective kinase inhibitor with in vitro activity against FLT3, VEGFR2, VEGFR3 and TRKA receptor tyrosine kinases.

Test [2] concerns the target T2, ERBB2 (HER2) (Homo sapiens, UniProt P04626).
T2 construct: purchased Invitrogen SelectScreen
As to the kind of experiment: Invitrogen SelectScreen kinase profiling. It counts as biochemical. As to conditions: 100 nM. The method, then:
as §1, §2

Test [3] has as its target T3, SGK2 (Homo sapiens, UniProt Q9HBY8).
T3 construct: purchased Invitrogen SelectScreen
As to the kind of experiment: Invitrogen SelectScreen kinase profiling. The format is biochemical. Conditions: 100 nM. The method, then: as §1, §2

For test [4], the target named is T4, AXL (Homo sapiens, UniProt P30530).
T4 construct: purchased Invitrogen SelectScreen
Nature of the test: Invitrogen SelectScreen kinase profiling. It counts as biochemical. Conditions: 100 nM. The method, then:
as §1, §2

Test [5] has as its target T5, PLK1 (Homo sapiens, UniProt P53350).
T5 construct: purchased Invitrogen SelectScreen
As to the kind of experiment: Invitrogen SelectScreen kinase profiling. Conditions: 100 nM. It counts as biochemical. How it is done: as §1, §2

Test [6] deals with T6, RPS6KB1 (p70S6K) (Homo sapiens, UniProt P23443).
T6 construct: purchased Invitrogen SelectScreen
Nature of the test: Invitrogen SelectScreen kinase profiling. As to conditions: 100 nM. The format is biochemical. The method, then:
as §1, §2

Test [7] deals with T7, JAK2 (Homo sapiens, UniProt O60674).
T7 construct: purchased Invitrogen SelectScreen
As to the kind of experiment: Invitrogen SelectScreen kinase profiling. The format is biochemical. As to conditions: 100 nM. The method, then: as §1, §2

Test [8] has as its target T8, IRAK4 (Homo sapiens, UniProt Q9NWZ3).
T8 construct: purchased Invitrogen SelectScreen
As to the kind of experiment: Invitrogen SelectScreen kinase profiling. As to conditions: 100 nM. It counts as biochemical. How it is done:
as §1, §2

The target of test [9] is T9, MAP2K1 (MEK1) (Homo sapiens, UniProt Q02750).
T9 construct: purchased Invitrogen SelectScreen
Nature of the test: Invitrogen SelectScreen kinase profiling. It counts as biochemical. Conditions: 100 nM. How it is done: as §1, §2

Test [10] deals with T10, CSK (Homo sapiens, UniProt P41240).
T10 construct: purchased Invitrogen SelectScreen
Nature of the test: Invitrogen SelectScreen kinase profiling. As to conditions: 100 nM. It counts as biochemical. How it is done:
as §1, §2

Test [11] addresses T11, PDGFRA (PDGFR alpha) (Homo sapiens, UniProt P16234).
T11 construct: purchased Invitrogen SelectScreen
As to the kind of experiment: Invitrogen SelectScreen kinase profiling. As to conditions: 100 nM. It counts as biochemical. The method, then: as §1, §2

For test [12], the target named is T12, IKBKE (IKK epsilon) (Homo sapiens, UniProt Q14164).
T12 construct: purchased Invitrogen SelectScreen
As to the kind of experiment: Invitrogen SelectScreen kinase profiling. The format is biochemical. Conditions: 100 nM. How it is done: as §1, §2

Test [13] has as its target T13, GSK3B (GSK3 beta) (Homo sapiens, UniProt P49841).
T13 construct: purchased Invitrogen SelectScreen
Nature of the test: Invitrogen SelectScreen kinase profiling. It counts as biochemical. As to conditions: 100 nM. How it is done:
as §1, §2

The target of test [14] is T14, LYN A (Homo sapiens, UniProt P07948).
T14 construct: purchased Invitrogen SelectScreen
As to the kind of experiment: Invitrogen SelectScreen kinase profiling. It counts as biochemical. As to conditions: 100 nM. How it is done: as §1, §2

Test [15] addresses T15, CDK2/cyclin A (Homo sapiens, UniProt P24941).
T15 construct: purchased Invitrogen SelectScreen
As to the kind of experiment: Invitrogen SelectScreen kinase profiling. It counts as biochemical. Conditions: 100 nM. How it is done: as §1, §2

The target of test [16] is T16, AMPK A1/B1/G1 (Homo sapiens, UniProt Q13131).
T16 construct: purchased Invitrogen SelectScreen
As to the kind of experiment: Invitrogen SelectScreen kinase profiling. Conditions: 100 nM. The format is biochemical. How it is done:
as §1, §2

The target of test [17] is T17, FLT3 (Homo sapiens, UniProt P36888).
T17 construct: purchased Invitrogen SelectScreen
Nature of the test: Invitrogen SelectScreen kinase profiling. Conditions: 100 nM. It counts as biochemical. The method, then:
as §1, §2

The target of test [18] is T18, RPS6KA5 (MSK1) (Homo sapiens, UniProt O75582).
T18 construct: purchased Invitrogen SelectScreen
Nature of the test: Invitrogen SelectScreen kinase profiling. As to conditions: 100 nM. It counts as biochemical. How it is done:
as §1, §2

Test [19] deals with MOLM-13 cells. Nature of the test: Apoptosis induction, caspase-3 and PARP cleavage by Western blot. The format is cell-based, human. As to conditions: MOLM-13, 10 nM, 24 hours. How it is done:
(§3) Cells were lysed in lysis buffer (50 mM Tris, pH 8.0, 150 mM NaCl, 1% Triton X-100, 0.5% sodium deoxycholate, 0.1% SDS, 1 mM sodium orthovanadate, 1 mM PMSF, and 1 mM DTT). Protein lysates were resolved by SDS-PAGE and transferred onto a polyvinylidene difluoride (PVDF) membrane (Millipore, Bedford, MA, USA). The membranes were immunoblotted with appropriate antibodies and detected using the SuperSignal reagent (Pierce, Rockford, IL, USA) followed by exposure to X-ray film.
(§4) As the inhibition of FLT3 signaling results in a loss of growth potential and an induction of apoptosis in FLT3-ITD expressing cells, the effects of BPR1J-340 on cell apoptotic response in FLT3-ITD^+ cells was investigated. The MOLM-13 and MV4;11 cells were treated with BPR1J-340 at different concentrations for 24 hours and analyzed for the induction of apoptosis using active caspase-3 and cleaved PARP (poly-ADP-ribose polymerase) analysis.
(§5) Figure 3 BPR1J-340 induces apoptosis in MOLM-13 and MV4;11 cells. […] MOLM-13 (A) and MV4;11 (B) cells were treated with BPR1J-340 at the indicated concentrations for 24 hours, and the cell lysates were then subjected to Western blot analysis using antibodies against caspase-3 and PARP (poly-ADP-ribose polymerase). (full length caspase-3 (FL-caspase-3), cleavage of caspase-3 (CL-caspase-3), full length poly(ADP-ribose) polymerase (FL-PARP), cleavage of PARP (CL-PARP)).
On the technique in general: A western blot detects proteins with antibodies after separation by electrophoresis.

Test [20] deals with MV4;11 cells. Described as above. The format is cell-based, human. Conditions: MV4;11, 10 nM, 24 hours. How it is done: as §3, §4, §5
Test [21] addresses Aurora A kinase (Homo sapiens, UniProt O14965). Nature of the test: Aurora A kinase inhibition. The format is biochemical. The method, then: as §2

T14 sequence (P07948 whole entry): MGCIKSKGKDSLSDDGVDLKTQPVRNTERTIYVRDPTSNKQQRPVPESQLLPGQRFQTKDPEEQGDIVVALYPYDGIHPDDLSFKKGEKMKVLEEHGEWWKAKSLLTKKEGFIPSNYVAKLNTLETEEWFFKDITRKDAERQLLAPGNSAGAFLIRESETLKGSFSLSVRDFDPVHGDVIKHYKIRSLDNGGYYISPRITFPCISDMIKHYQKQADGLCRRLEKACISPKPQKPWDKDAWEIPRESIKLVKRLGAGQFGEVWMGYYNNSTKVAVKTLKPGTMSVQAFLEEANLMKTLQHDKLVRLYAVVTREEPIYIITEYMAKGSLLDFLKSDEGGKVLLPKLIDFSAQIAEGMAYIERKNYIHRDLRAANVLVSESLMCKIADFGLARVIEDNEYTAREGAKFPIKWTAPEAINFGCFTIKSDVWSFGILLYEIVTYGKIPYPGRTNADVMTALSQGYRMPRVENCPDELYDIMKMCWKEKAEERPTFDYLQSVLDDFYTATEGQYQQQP
T5 sequence (P53350 whole entry): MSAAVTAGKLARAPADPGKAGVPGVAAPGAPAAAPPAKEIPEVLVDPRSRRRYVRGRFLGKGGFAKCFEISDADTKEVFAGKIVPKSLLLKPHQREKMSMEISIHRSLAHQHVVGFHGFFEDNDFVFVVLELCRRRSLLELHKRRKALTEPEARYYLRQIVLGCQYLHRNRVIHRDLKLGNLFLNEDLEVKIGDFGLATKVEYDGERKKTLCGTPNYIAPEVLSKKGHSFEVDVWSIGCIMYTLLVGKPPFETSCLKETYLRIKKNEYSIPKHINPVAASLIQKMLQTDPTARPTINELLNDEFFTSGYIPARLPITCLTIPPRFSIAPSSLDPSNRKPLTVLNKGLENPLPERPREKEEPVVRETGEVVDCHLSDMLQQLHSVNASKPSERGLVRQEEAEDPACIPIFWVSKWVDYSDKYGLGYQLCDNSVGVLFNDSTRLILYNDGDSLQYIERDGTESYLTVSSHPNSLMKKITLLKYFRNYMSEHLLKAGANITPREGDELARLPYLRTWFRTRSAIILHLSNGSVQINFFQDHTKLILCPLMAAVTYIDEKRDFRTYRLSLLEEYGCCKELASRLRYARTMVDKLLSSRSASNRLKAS
T6 sequence (P23443 whole entry): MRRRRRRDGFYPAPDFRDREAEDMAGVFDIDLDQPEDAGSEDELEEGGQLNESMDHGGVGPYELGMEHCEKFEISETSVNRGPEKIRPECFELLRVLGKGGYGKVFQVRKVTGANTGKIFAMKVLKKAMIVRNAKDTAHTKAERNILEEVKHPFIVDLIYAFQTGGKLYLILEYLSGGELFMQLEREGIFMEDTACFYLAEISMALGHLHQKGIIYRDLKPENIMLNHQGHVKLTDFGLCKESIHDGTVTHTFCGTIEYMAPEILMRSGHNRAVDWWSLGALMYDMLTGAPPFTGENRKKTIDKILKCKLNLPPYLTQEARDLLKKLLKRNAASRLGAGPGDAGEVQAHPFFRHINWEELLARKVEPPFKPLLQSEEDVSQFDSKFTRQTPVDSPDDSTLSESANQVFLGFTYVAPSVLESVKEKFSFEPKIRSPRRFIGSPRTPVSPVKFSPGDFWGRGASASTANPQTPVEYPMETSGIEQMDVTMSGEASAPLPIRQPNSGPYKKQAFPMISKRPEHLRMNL
T7 sequence (O60674 whole entry): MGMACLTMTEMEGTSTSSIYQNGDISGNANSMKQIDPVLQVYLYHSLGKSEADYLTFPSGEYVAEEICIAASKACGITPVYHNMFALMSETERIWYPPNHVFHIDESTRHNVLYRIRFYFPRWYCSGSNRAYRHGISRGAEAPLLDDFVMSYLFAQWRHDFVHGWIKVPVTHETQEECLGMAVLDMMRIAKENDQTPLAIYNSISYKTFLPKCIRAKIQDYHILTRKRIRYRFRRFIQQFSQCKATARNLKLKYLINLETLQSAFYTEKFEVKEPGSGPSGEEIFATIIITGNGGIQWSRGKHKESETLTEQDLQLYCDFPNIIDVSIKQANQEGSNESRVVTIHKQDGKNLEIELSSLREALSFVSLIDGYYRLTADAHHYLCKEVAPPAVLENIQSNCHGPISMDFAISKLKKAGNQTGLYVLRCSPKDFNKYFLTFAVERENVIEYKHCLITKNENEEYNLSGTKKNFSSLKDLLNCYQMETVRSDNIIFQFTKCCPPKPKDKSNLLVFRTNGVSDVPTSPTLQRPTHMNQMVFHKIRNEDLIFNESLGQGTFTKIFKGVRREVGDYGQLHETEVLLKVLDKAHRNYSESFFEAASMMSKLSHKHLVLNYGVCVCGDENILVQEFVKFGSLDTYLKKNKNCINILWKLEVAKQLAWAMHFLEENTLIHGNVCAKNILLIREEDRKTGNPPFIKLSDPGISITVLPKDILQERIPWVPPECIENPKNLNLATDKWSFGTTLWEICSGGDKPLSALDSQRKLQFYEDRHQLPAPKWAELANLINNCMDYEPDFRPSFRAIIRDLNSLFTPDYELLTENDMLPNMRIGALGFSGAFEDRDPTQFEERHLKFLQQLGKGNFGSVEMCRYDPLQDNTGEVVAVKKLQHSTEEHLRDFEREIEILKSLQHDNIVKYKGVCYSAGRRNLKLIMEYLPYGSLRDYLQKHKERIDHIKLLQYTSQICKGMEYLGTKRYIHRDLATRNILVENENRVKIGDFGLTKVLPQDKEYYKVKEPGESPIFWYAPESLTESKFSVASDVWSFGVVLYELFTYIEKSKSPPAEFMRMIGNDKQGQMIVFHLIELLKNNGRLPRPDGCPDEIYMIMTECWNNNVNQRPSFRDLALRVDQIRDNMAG
T8 sequence (Q9NWZ3 whole entry): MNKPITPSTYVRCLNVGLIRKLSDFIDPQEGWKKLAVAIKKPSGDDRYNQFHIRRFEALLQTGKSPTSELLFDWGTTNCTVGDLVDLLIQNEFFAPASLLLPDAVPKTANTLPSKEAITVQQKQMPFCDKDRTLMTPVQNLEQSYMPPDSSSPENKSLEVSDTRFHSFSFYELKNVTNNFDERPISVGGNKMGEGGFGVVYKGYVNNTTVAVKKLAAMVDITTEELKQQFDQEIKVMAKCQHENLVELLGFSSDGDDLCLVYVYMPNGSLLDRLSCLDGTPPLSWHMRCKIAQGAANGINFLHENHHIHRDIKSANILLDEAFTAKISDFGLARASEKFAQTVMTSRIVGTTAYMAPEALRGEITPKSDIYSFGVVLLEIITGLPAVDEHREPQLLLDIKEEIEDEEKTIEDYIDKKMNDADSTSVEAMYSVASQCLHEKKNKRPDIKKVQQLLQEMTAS
T18 sequence (O75582 whole entry): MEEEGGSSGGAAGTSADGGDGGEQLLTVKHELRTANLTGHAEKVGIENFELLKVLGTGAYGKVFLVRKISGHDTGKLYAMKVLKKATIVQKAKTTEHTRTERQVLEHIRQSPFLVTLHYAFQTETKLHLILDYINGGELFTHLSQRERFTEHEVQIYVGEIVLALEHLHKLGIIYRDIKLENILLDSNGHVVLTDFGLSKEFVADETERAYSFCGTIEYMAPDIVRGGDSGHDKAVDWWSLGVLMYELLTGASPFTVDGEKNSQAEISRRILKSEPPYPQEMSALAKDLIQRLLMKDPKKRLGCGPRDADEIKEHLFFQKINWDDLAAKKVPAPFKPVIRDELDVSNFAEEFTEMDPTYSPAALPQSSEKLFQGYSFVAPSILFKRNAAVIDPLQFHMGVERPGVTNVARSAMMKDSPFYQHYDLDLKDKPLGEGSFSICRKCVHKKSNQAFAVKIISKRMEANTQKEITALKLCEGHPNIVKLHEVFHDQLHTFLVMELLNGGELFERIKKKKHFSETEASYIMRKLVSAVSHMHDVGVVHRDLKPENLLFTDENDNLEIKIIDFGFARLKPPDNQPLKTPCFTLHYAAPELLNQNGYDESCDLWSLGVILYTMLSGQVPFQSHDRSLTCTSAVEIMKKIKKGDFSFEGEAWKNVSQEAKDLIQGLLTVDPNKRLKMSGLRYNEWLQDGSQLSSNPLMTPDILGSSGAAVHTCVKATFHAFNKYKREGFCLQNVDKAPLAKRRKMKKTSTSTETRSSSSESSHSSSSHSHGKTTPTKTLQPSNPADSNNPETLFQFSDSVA
T10 sequence (P41240 whole entry): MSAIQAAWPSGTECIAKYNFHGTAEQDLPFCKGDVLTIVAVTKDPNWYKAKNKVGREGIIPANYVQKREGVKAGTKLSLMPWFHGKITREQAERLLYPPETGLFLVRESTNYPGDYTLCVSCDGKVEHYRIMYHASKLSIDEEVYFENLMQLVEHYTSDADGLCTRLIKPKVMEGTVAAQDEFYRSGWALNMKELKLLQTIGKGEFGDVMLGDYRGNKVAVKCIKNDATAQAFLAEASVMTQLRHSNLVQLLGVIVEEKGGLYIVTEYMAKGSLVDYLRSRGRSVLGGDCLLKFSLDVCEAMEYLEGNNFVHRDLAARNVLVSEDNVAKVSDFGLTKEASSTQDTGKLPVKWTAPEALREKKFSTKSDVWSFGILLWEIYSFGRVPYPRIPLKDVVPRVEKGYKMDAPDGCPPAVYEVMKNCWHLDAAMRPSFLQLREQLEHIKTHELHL
T13 sequence (P49841 whole entry): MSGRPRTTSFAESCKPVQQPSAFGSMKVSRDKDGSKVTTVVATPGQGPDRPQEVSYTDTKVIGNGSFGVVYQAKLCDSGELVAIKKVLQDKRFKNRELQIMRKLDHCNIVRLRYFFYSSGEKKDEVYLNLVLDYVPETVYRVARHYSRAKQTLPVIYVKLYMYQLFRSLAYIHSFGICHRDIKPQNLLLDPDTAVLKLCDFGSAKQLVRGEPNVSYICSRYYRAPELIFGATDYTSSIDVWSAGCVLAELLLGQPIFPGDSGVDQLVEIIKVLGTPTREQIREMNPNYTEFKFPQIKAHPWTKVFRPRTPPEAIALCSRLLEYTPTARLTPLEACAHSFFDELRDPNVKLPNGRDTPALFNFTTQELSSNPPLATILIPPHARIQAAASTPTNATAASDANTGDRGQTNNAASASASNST

A word on the inhibition: it is the drop in the measured response relative to a control, in per cent. One may read the IC50 as the concentration at which inhibition is half-maximal. A lower IC50 goes with greater potency. As for `CCc1cc(NC(=O)NCc2ccc(-c3cc(NC(=O)c4ccc(CN5CCN(C)CC5)cc4)[nH]n3)cc2)no1` [BPR1J-340, N1-(3-4-[([(5-ethyl-3-isoxazolyl)amino]carbonylamino)methyl]phenyl-1H-5-pyrazolyl)-4-[(4-methylpiperazino)methyl]benzamide], the inhibition at 0.1 µM is -5% in test [1]; 11% in [2]; 22% in test [3]; -4% in [4]; 4% in test [5]; -18% in test [6]. For the same molecule, the inhibition at 0.1 µM was found to be 9% in test [7]; 4% in [8]; 0% in [9]; 3% in test [10]; 38% in test [11]; 21% in [12]. For the same molecule, the inhibition at 0.1 µM in test [13] was determined as 36%; in test [14] it was 17%; in test [15], 5%; in test [16], 30%; in [17] it was 97%; in [18], 16%. In addition, the “cleavage of caspase-3 and PARP (apoptosis)” value in [19] and in [20] was “significant cleavage” throughout. Further, half-maximal inhibition in test [21] (IC50) was put at 1.04 µM.
